pIC50: −log10 of the molar value. Where only a bound is given, the exact number is not on record here.

T1 sequence (P11802 whole entry): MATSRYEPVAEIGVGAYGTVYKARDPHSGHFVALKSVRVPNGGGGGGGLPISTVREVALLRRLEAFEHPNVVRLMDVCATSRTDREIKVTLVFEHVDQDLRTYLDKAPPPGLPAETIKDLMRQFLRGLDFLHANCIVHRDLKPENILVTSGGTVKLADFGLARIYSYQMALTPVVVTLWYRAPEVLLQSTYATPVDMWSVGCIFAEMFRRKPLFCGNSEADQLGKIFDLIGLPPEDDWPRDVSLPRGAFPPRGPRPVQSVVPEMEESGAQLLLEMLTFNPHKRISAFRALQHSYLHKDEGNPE
T1 sequence (P24385 whole entry partner): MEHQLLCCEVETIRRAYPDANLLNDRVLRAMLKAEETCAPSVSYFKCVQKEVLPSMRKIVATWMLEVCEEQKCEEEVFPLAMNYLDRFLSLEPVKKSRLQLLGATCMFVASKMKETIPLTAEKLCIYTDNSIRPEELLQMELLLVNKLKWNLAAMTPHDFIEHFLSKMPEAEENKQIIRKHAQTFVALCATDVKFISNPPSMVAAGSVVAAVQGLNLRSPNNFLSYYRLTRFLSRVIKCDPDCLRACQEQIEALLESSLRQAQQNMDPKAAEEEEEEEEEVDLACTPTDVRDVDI

In the first test the target is T1, cyclin D1-cdk4 (Homo sapiens, UniProt P11802). Put plainly: Assay of Cyclin D1-cdk4 Kinase Activity with the Rb21 Protein as Substrate. Type of test: biochemical. The conditions noted are these: Rb21 protein 5 ug as substrate, 30 uM ATP, 60 minutes at room temperature. The procedure:
Assay of Cyclin D1-cdk4 Kinase Activity with the Rb21 Protein as Substrate
The cyclin D1-cdk4 kinase activity of a compound was assayed by preparing a 100 ul reaction at the following concentrations: 20 mM Hepes pH 7.0, 10 mM MgCl2, 30 uM ATP, 5 ug of Rb21 protein (Santa Cruz Biotech, Catalog #sc-4112), 1.0 uCi of γ-^33P-ATP, 1.09 ug of cyclin D-cdk4 enzyme, 4% DMSO, and various concentrations of inhibitor. The reaction was incubated at room temperature (about 74° F.) for 60 minutes, and then terminated by the addition of 100 ul of 25% trichloroacetic acid. Next, the reaction was filtered through a Millipore Multiscreen-FC Plate—Catalog number MAFC NOB 10, and the plate was washed 2 times with 320 ul each of 10% trichloroacetic acid, followed by the addition of 100 ul of scintillation fluid and quantitation on a Packard Instruments, Top Count, scintillation counter.
In general, pIC50 refers to −log10 of the IC50, conventionally taken in molar units. In the case of `O=C1NC(=O)c2c1c1c3ccccc3[nH]c1c1c2c2cccc3c2n1CCC3` [drawing 228], the negative-log IC50 (pIC50) is 7.19. As to `CC(C)(C)OC[C@H]1Cn2c3c(cccc3c3c4c(c5c6ccccc6[nH]c5c32)C(=O)NC4=O)CN1` [drawing 229], the pIC50 was 7.18. Still for that read-out and setting: the same measure for `CC1Cn2c3c(cccc3c3c4c(c5c6ccccc6[nH]c5c32)C(=O)NC4=O)CN1C(=O)[C@H](C)N` (stereo partly drawn) [drawing 233]: 6.74.

In the case of `CC1(C)CCn2c3c1cc(F)cc3c1c3c(c4c5ccccc5[nH]c4c12)C(=O)NC3=O` [drawing 234], the negative logarithm of the IC50 (pIC50) was 6.69. The compound `CC1(C)Cc2cccc3c4c5c(c6c7ccc(CN)cc7[nH]c6c4n(c23)C1)C(=O)NC5=O` [drawing 235] showed a pIC50 of 7.52. Still for that read-out and setting: the value for `O=C1NC(=O)c2c1c1c3ccc(CN4CCCC4)cc3[nH]c1c1c2c2cccc3c2n1CCC3` [drawing 236] was 7.95; that for `CN1Cc2cccc3c4c5c(c6c7ccccc7[nH]c6c4n(c23)C1)C(=O)NC5=O` [drawing 237] was 7.81. Same read-out and setting: the value for `O=C1NC(=O)C(c2cn3c4c(cccc24)CCC3)=C1c1c[nH]c2ccccc12` [drawing 238] was 6.15; that for `O=C1NC(=O)C(c2cn3c4c(cccc24)CC(CO)C3)=C1c1c[nH]c2ccccc12` (stereo not drawn) [drawing 239] was 6.09.

In another test the test system is HCT-116 or NCI H460 cells. Put plainly: Cell Growth Inhibition Assay (MTT). The note with it: 72 h of drug exposure. It is filed as cell-based. The procedure:
Cell Growth Inhibition Assay
The MTT assay was used to measure growth inhibitory activity (Schultz, R. M., et. al. Oncology Res. 5, 223-228, 1993). […] Basically, 1000 HCT-116 or NCI H460 cells were added per well to 96-well flat-bottom plates in 100-ul RPMI 1640 medium containing 10% dialyzed fetal bovine serum. The plates were incubated for 24 h prior to addition of test compounds. A stock solution (10 mM) was prepared in DMSO and serially diluted in medium. Compound dilutions were added to triplicate wells, and the plates were incubated for 72 hours. […].
As to `O=C1NC(=O)c2c1c1c3ccccc3[nH]c1c1c2c2cccc3c2n1CCC3` [Example 52, 11H, 12H, 14H-pyrrolo[3,4-c]quinolino[8′,8a′,1′:3,2,1]-pyrrolo[2,3-a]carbazole-5,7-dione], the cell growth inhibition result is recorded as “inhibit cell growth”.

In a further test the test system is HCT-116 and NCI H460 cell lines. Kind of test: Cell Cycle Analysis Using Flow Cytometry. Type of test: cell-based. The note with it: compound at 1×IC50 and 3×IC50, 24 hours, DNA histogram analysis. The protocol: Cell Cycle Analysis Using Flow Cytometry
The HCT-116 and NCI H460 cell lines were seeded in 75 cm^2 flasks at 5×10^5 cells/25 ml RPMI 1640 medium containing 10% dialyzed fetal bovine serum. They were incubated for 24 hours. Compound is then added at 1×IC50 and 3×IC50 (determined from above section “growth inhibition studies”) and incubated for an additional 24 hours. The cells were subsequently harvested and the protocol (Robinson, J. P. and Darzynkiewicz, Z. Current Protocols in Cytometry. 1997) for staining was followed. DNA histogram analysis was performed using ModFit LT (Verity House).
Regarding `O=C1NC(=O)c2c1c1c3ccccc3[nH]c1c1c2c2cccc3c2n1CCC3` [Example 52, 11H, 12H, 14H-pyrrolo[3,4-c]quinolino[8′,8a′,1′:3,2,1]-pyrrolo[2,3-a]carbazole-5,7-dione], the cell cycle arrest result is on record as “arrest cells in the G1 phase of the cell cycle”.

A further test has as its target T1, cyclin D1-cdk4. Put plainly: Assay of Cyclin D1-cdk4 Kinase Activity with the ING Peptide as Substrate. The conditions noted are these: ING peptide 200 uM as substrate, 300 uM ATP, 60 minutes at room temperature. It is filed as biochemical. The procedure: Assay of Cyclin D1-cdk4 Kinase Activity with the ING Peptide as Substrate
The cyclin D1-cdk4 kinase activity of a compound was assayed by preparing a 100 ul reaction at the following concentrations: 35 mM Hepes pH 7.0, 10 mM MgCl2, 300 uM ATP, 200 uM ING peptide, 1.0 uCi of γ-^33P-ATP, 4.34 ug of cyclin D-cdk4 enzyme, 4% DMSO, and various concentrations of inhibitor. The reaction was incubated at room temperature (about 74° F.) for 60 minutes, and then terminated by the addition of 100 ul of 10% phosphoric acid. Next, the reaction was filtered through a Millipore Multiscreen-PH Plate—Catalog number MAPH NOB 10, and the plate was washed 2 times with 320 ul each of 0.5% phosphoric acid, followed by the addition of 100 ul of scintillation fluid and quantitation on a Packard Instruments, Top Count, scintillation counter.
In turn, `O=C1NC(=O)c2c1c1c3ccccc3[nH]c1c1c2c2cccc3c2n1CC(CO)C3` (stereo not drawn) showed a pIC50 of 6.90. `O=C1NC(=O)c2c1c1c3ccccc3[nH]c1c1c2c2cccc3c2n1C(CO)CC3` (stereo not drawn): the pIC50 is 7.10. Take `O=C1NC(=O)c2c1c1c3ccccc3[nH]c1c1c2c2cccc3c2n1CCC3CO` (stereo not drawn): the negative logarithm of the IC50 (pIC50) is 7.19.

As to `O=C1NC(=O)C(c2cn3c4c(cccc24)CCC3CO)=C1c1c[nH]c2ccccc12` (stereo not drawn), the pIC50 is 6.82.

`CC1(C)CCn2cc(C3=C(c4c[nH]c5ccccc45)C(=O)NC3=O)c3cc(F)cc1c32` gave a pIC50 of 5.81.

The compound `CC1(C)Cc2cccc3c(C4=C(c5c[nH]c6cc(CN)ccc56)C(=O)NC4=O)cn(c23)C1` had a pIC50 of 6.10.

In turn, `CN1Cc2cccc3c(C4=C(c5c[nH]c6ccccc56)C(=O)NC4=O)cn(c23)C1` had a negative logarithm of the IC50 (pIC50) of 6.34. Still for that read-out and setting: the value for `O=C1NC(=O)c2c1c1c3ccccc3[nH]c1c1c2c2cccc3c2n1CCC3` [drawing 212] was 6.98; that for `CC(C)(C)OC[C@H]1Cn2c3c(cccc3c3c4c(c5c6ccccc6[nH]c5c32)C(=O)NC4=O)CN1` [drawing 213] was 6.93; that for `CC1Cn2c3c(cccc3c3c4c(c5c6ccccc6[nH]c5c32)C(=O)NC4=O)CN1C(=O)[C@H](C)N` (stereo partly drawn) [drawing 217] was 6.57.

In turn, `CC1(C)CCn2c3c1cc(F)cc3c1c3c(c4c5ccccc5[nH]c4c12)C(=O)NC3=O` [drawing 218] gave a pIC50 of 6.33.

For the compound `CC1(C)Cc2cccc3c4c5c(c6c7ccc(CN)cc7[nH]c6c4n(c23)C1)C(=O)NC5=O` [drawing 219], the negative-log IC50 (pIC50) is 6.76. Same read-out and setting: the value for `O=C1NC(=O)c2c1c1c3ccc(CN4CCCC4)cc3[nH]c1c1c2c2cccc3c2n1CCC3` [drawing 220] was 7.29; that for `CN1Cc2cccc3c4c5c(c6c7ccccc7[nH]c6c4n(c23)C1)C(=O)NC5=O` [drawing 221] was 7.43. For `O=C1NC(=O)C(c2cn3c4c(cccc24)CCC3)=C1c1c[nH]c2ccccc12` [drawing 222], the negative-log IC50 (pIC50) was 6.10. `O=C1NC(=O)C(c2cn3c4c(cccc24)CC(CO)C3)=C1c1c[nH]c2ccccc12` (stereo not drawn) [drawing 223]: the negative-log IC50 (pIC50) is 6.44.

Another test concerns protein kinase A.
Experiment: not given
The note with it: cited from earlier work.
Regarding `CN1CC[C@H](c2c(O)cc(O)c3c(=O)cc(-c4ccccc4Cl)oc23)[C@H](O)C1` [Flavopiridol], the “concentration inhibiting protein kinase A” value is ≥ 10 μM/L.

A further test has as its system protein kinase C.
Experiment: not given
The note with it: cited from earlier work.
Take `CN1CC[C@H](c2c(O)cc(O)c3c(=O)cc(-c4ccccc4Cl)oc23)[C@H](O)C1` [Flavopiridol]: the “concentration inhibiting protein kinase C” value is given as ≥ 10 μM/L.

For the next test, the system named is Ser-780 pRb phosphorylation in HCT116 cells. Put plainly: Inhibition of Rb Phosphorylation Assay. Type of test: cell-based, Human. The conditions noted are these: compound at 1×, 2× and 3×IC50, 24 hours, immunoblot. The procedure:
Inhibition of Rb Phosphorylation Assay
Human HCT116 colon carcinoma cell line was purchased from American Tissue Culture Collection (Rockville, Md.) and maintained as monolayer in RPMI-1640 with L-Glutamine and 25 mM HEPES supplemented with 10% fetal bovine serum in a 37° C. incubator with a 10% CO2 atmosphere. The detection of mycoplasm in cultured cells was performed using Mycoplasma Rapid Detection System (TaKaRa Shuzo Co. Ltd., Shiga, Japan) every 2-3 months and the cells were found consistently negative throughout these experiments. The Rb phosphorylation assay was done be plating 4×10^5 cells/well in 6-well plates. […] At the end of the incubation period the mediumj was removed and the cells were washed twice with cold PBS containing 1 mM sodium orthovanadate (Na3VO4). […] Protein concentration was determined by the Bio-Rad DC protein assay (Bio-Rad, Hercules, Calif.). […] Proteins were detected by capturing image of the membrane using Quantity One Software on a Fluor-S multi-Imager (Bio-Rad, Hercules, Calif.) in a linear range. Specific bands were quantified using Quantity One Software. […] Results are expressed as a percentage inhibition of Ser-780 pRb phosphorylation in drug treated cells versus control DMSO treated cells.
For the compound `O=C1NC(=O)c2c1c1c3ccccc3[nH]c1c1c2c2cccc3c2n1CCC3` [Example 52, 11H, 12H, 14H-pyrrolo[3,4-c]quinolino[8′,8a′,1′:3,2,1]-pyrrolo[2,3-a]carbazole-5,7-dione], the “inhibition of Ser-780 pRb phosphorylation” value is “inhibit Rb (retinoblastoma protein) phosphorylation”.

Source of the values: patent publication US6867198B2, “Agents and methods for the treatment of proliferative diseases” (Eli Lilly and Company, priority 1999, dated 2005).
